We go through one substance from patent US20240307434A1, “USE OF LUTETIUM SALT COMPOUNDS FOR ANTIVIRAL EFFECT” (priority 2022, published 2024).

This test relates to Adenovirus, Poliovirus, Herpes Simplex Type 1 and Herpes Simplex Type 2, Coronavirus and Norovirus strains.

Turning to lutetium Borate [LuBO3], the antiviral efficacy entry is “exhibit antiviral efficacy”.
